What was measured:
J774.G8 macrophages = assay: Macrophage toxicity assay (sulforhodamine B); assay type: cell-based, mouse; settings: for IC50 (macrophage toxicity): 72 hours, 37° C., macrophage growth inhibited by 50%; for toxicity to the macrophage (in words): in vitro
Protocol: The toxicity of the candidate compounds on J774.G8 macrophages was measured using a sulforhodamine B (Molecular Probes, Eugene, Oreg.) based dye assay.
Specifically, a confluent culture of macrophages in a T75 culture flask was harvested by replacing the growth medium (DMEM supplemented with 10% heat inactivated fetal calf serum, 50 units/ml penicillin, and 50 μg/ml streptomycin) with 25 ml of fresh medium and scraping the cells from the bottom of the culture flask. Cell clumps were broken up by gentle pipetting and the cell suspension was transferred to a 50 ml conical centrifuge tube. The cells were then pelleted by centrifugation at 1,000 rpm at 4° C. for 5 minutes. The supernatant was then removed and the cells were resuspended in 15 ml DMEM.
After counting an aliquot of the cell suspension, the macrophages were then diluted to about 1×10^5 cells/ml in DMEM and 180 μl was added to each well of a 96 well tissue culture plate Then 20 μl serial dilutions of a given candidate compound was added. The plate was then placed in a 37° C. humidified 5% CO2 incubator and incubated for 72 hours. Then 50 μl of 50% TCA was added to each well to fix the proteins. The plate was then incubated for at least 1 hour at 4° C.
The liquid contents of the wells were discarded and the wells were washed five times with 200 μl of distilled water. After the final wash the plate was allowed to air dry for 20 minutes. 100 μl of the sulforhodamine B dye (0.4% dye in 1% acetic acid) was added. The plate was then incubated at room temperature for 20 minutes. After discarding the dye solution, the wells were washed five times with 200 μl of 1% acetic acid and then allowed to air dry for 20 minutes. At this time, 50 μl of 10 mM TRIS base was added. After a few minutes of incubation, the absorbance of each well at 490 nm was measured in a SpectraMax Pro microplate reader (Molecular Devices, Sunnyvale, Calif.).
The IC50 values for each candidate compound (the concentration of the agent that inhibited macrophage growth by 50%) were determined for the macrophages with the aid of the program SoftMax Pro (Molecular Devices, Sunnyvale, Calif.) using the following dose response equation: y=((a−d)/1+(x/c)^b)+d, where x=drug concentration; y=absorbance at 490 nm; a=upper asymptote; b=slope; c=IC50; and d=lower asymptote. FIG. 5 provides the graphical data for compound 1DWB667 as an example.

[1] = system: L. donovani infected macrophages; assay: Infected macrophage assay, L. donovani; assay type: cell-based; settings: for Macrophage IC50 L. donovani: J774.G8 mouse macrophages, 72 hours, 37° C., number of infected macrophages inhibited by 50%
From the text: A one week old, confluent culture of J774.G8 mouse macrophages was washed three times with Hank's Balanced Salt Solution (HBSS) without calcium and magnesium (Sigma, St. Louis, Mo.). The J774.G8 mouse macrophages are a continuous cell line that have been cited in the literature as supporting continuous and intracellular growth of various Leishmania sp. and they have been used for drug assays against intracellular parasites, Trypanosoma cruzi and Leishmania sp. See Alcina, A., et al. (1988) Antimicrobial Agents & Chemotherapy. 32(9):1412-5; Mendez, S., et al. (1996) International Journal for Parasitology 26(6):619-22; Hodgkinson, V. H., et al. (1996) Experimental Parasitology 83(1):94-105; and Chang, K. P. (1980) Science 209(4462): 1240-42, which are herein incorporated by reference.
The macrophages were then incubated at 37° C. in a humidified 5% CO2 incubator for 15 minutes with a Trypsin-EDTA (0.05% Trypsin, 0.53 mM EDTA 4Na) solution (GIBCO BRL, Grand Island, N.Y.). The macrophages were then detached with a cell scraper and suspended by vigorous pipetting. The macrophages were then mixed with a late log phase culture of L. mexicana promastigotes to yield a solution comprising about 5×10^5 macrophages per ml and about 25×10^5 promastigotes per ml in DMEM (pH 7.4) supplemented with 10% heat inactivated fetal calf serum comprising penicillin (50 units/ml) and streptomycin (50 μg/ml).
The macrophage-parasite mixture was then pipetted into 96-well flat-bottom plates (Costar, Cambridge, Mass.) at 200 μl per well. Infection and attachment of the macrophages was allowed to occur over a period of about 48 hours at 33° C. in a humidified 5% CO2 incubator. The wells were washed three times with HBSS to remove extracellular parasites. Each well was then treated with serial dilutions of a given candidate compound in DMEM.
The treated plate was incubated for about 72 hours at 33° C. in a humidified 5% CO2 incubator. The macrophages in each well were detached into the DMEM used for the incubation by pipetting and scraping with the tip of a microliter pipettor. 75 μl of the cell suspension was transferred to a cytospin funnel and the cells were centrifuged onto microscope slides at 800 rpm for 5 minutes using a Cytospin centrifuge (Shandon, Pittsburgh, Pa.).
The slides were air dried and then fixed in methanol for 5 seconds. After the methanol evaporated, the slides were stained with 5% Giemsa stain (Fisher, Suwanee, Ga.) in phosphate buffer comprising 3.1 mM potassium phosphate dibasic and 8.3 mM sodium phosphate monobasic for 45 minutes. After thorough washing with flowing tap water, the slides were air dried and then viewed by oil immersion microscopy to determine percentage of infected cells. A cell was considered to be infected if it comprised one or more amastigote with a visible parasite nucleus and kinetoplast. Counting parasites and counting infected cells provided similar results when determining IC50 values.
The IC50 values (the concentration of the compound that inhibited the number of infected macrophages by 50%) were determined with the software program TableCurve (SPSS Science, Chicago, Ill.) using the following dose-response equation: y=a+b/(1+(x/c)^d), where x=the drug concentration, y=absorbance at 490 nm, a=upper asymptote, b=slope, c=IC50 and d=lower asymptote. FIG. 3 provides the graphical data obtained for compound 1DWB667 as an example.
The susceptibility of L. donovani infected macrophages to the compounds of the present invention were preformed by a modified protocol for L. mexicana infected macrophages above, wherein all incubations of the parasite infected macrophages were done at 37° C. rather than 33° C. FIG. 4 provides the graphical data for compound 1DWB667 as an example.

Substance | IC50 (macrophage toxicity) (J774.G8 macrophages) [µg/mL] | toxicity to the macrophage (in words) (J774.G8 macrophages) | Macrophage IC50 L. donovani [1] [µg/mL] | Macrophage IC50 L. donovani ([1]; listed as 1DWB667) | Macrophage IC50 L. donovani ([1]; listed as DB702) | reduction of parasite burden in L. donovani infected macrophages (in words) ([1]; in vitro, visceral strain)
2,5-Bis[2-methyl-4-(5-methyl-2-pyridylimino)aminophenyl]furan [DB 710] | 3.64 | about less than or equal to DB 702 and 1DWB667 | 0.530 |  |  | 
2,5-Bis[2-methoxy-4-(2-pyridylimino)aminophenyl]furan [DB 709] | 0.199 | toxic to the macrophage in vitro within the same range of toxicity to the amastigote within the macrophage | 0.104 |  |  | 
2,5-Bis[4-(2-pyridylimino)aminophenyl]furan [1DWB 667] | 4.28 |  | 0.942 | about 1.4 μg/ml |  | 
2,5-Bis[2-methyl-4-(2-pyridylimino)aminophenyl]furan [DB 702] | 2.23 |  | 0.063 |  | about 0.1 μg/ml | 
2,5-Bis[2-chloro-4-(2-pyridylimino)aminophenyl]furan [DB 712] | 3.39 | about less than or equal to DB 702 and 1DWB667 | 0.127 |  |  | least effective in reducing parasite burden

Reference: patent publication US6706754B2, “Reversed amidines and methods of using for treating, preventing, or inhibiting leishmaniasis” (The United States of America as represented by the …, priority 2000, dated 2004)
